Results: PubChem BioAssay AID1845199 (Molecular Pharmacology Branch, DTP, NCI, 2023)
pIC50: −log10 of the molar value.

Tested on: 556581-035-R-J1 tumor spheroid viability, % test/control
Assay: Anticancer human tumor 556581-035-R-J1 patient-derived ovarian carcinoma cell line growth inhibition
Settings: spheroids with HUVEC and MSC; for pIC50: curve of first compound; for viability, T/C: stronger effect = lower value
How it was run: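 Single agents and combinations were tested on spheroids built from tumor cells plus HUVEC and hMSC, at half-log dilutions starting at or near clinical Cmax, else 10 microM; final DMSO 0.25% (v/v).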

[1] = second compound 0.003 µM, first compound 0.0316 µM
[2] = second compound 0.003 µM, first compound 0.1 µM
[3] = second compound 0.003 µM, first compound 0.316 µM
[4] = second compound 0.003 µM, first compound 1 µM
[5] = second compound 0.003 µM, first compound 3.16 µM
[6] = second compound 0.003 µM, first compound 10 µM
[7] = second compound 0.00949 µM, first compound 0.0316 µM
[8] = second compound 0.00949 µM, first compound 0.1 µM
[9] = second compound 0.00949 µM, first compound 0.316 µM
[10] = second compound 0.00949 µM, first compound 1 µM
[11] = second compound 0.00949 µM, first compound 3.16 µM
[12] = second compound 0.00949 µM, first compound 10 µM
[13] = second compound 0.03 µM, first compound 0.0316 µM
[14] = second compound 0.03 µM, first compound 0.1 µM
[15] = second compound 0.03 µM, first compound 0.316 µM
[16] = second compound 0.03 µM, first compound 1 µM
[17] = second compound 0.03 µM, first compound 3.16 µM
[18] = second compound 0.03 µM, first compound 10 µM
[19] = second compound 0.0949 µM, first compound 0.0316 µM
[20] = second compound 0.0949 µM, first compound 0.1 µM
[21] = second compound 0.0949 µM, first compound 0.316 µM
[22] = second compound 0.0949 µM, first compound 1 µM
[23] = second compound 0.0949 µM, first compound 3.16 µM
[24] = second compound 0.0949 µM, first compound 10 µM
[25] = second compound 0.3 µM, first compound 0.0316 µM
[26] = second compound 0.3 µM, first compound 0.1 µM
[27] = second compound 0.3 µM, first compound 0.316 µM
[28] = second compound 0.3 µM, first compound 1 µM
[29] = second compound 0.3 µM, first compound 3.16 µM
[30] = second compound 0.3 µM, first compound 10 µM
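Also: spheroids exposed to compounds for 7 days before viability read.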

SMILES | pIC50 (second compound 0.003 µM) | pIC50 (second compound 0.00949 µM) | pIC50 (second compound 0.03 µM) | pIC50 (second compound 0.0949 µM) | pIC50 (second compound 0.3 µM) | viability, T/C [1] | viability, T/C [2] | viability, T/C [3] | viability, T/C [4] | viability, T/C [5] | viability, T/C [6] | viability, T/C [7] | viability, T/C [8] | viability, T/C [9] | viability, T/C [10] | viability, T/C [11] | viability, T/C [12] | viability, T/C [13] | viability, T/C [14] | viability, T/C [15] | further results
Cc1cc(C)c(CNC(=O)c2cc(-c3ccc(CN4CCOCC4)cc3)cc3c2cnn3C2CCCC2)c(=O)[nH]1 + CC[C@@]1(O)C(=O)OCc2c1cc1n(c2=O)Cc2cc3c(CN(C)C)c(O)ccc3nc2-1 | < 5.00 | < 5.00 | < 5.00 | 5.35 | > 7.50 | 97% | 85.4% | 89% | 84% | 99.7% | 87.4% | 95.9% | 87.7% | 78.8% | 72.5% | 87.4% | 83.8% | 74.2% | 72.9% | 70.3% | viability, T/C [16]: 67.1%; viability, T/C [17]: 66.8%; viability, T/C [18]: 70.4%; viability, T/C [19]: 60.1%; viability, T/C [20]: 56.6%; viability, T/C [21]: 57.1%; viability, T/C [22]: 56.3%; viability, T/C [23]: 53.5%; viability, T/C [24]: 43.1%; viability, T/C [25]: 19.3%; viability, T/C [26]: 22.9%; viability, T/C [27]: 19.6%; viability, T/C [28]: 19.2%; viability, T/C [29]: 15.6%; viability, T/C [30]: 11.3%
[2H]c1nc(C)nc([2H])c1-c1cc(NC[C@@H](C)c2cccc3c(C(=O)NC)ccnc23)ncn1 + CC[C@@]1(O)C(=O)OCc2c1cc1n(c2=O)Cc2cc3c(CN(C)C)c(O)ccc3nc2-1 | < 5.00 | < 5.00 | < 5.00 | 5.24 | > 7.50 | 101% | 104% | 101% | 104% | 102% | 101% | 94.9% | 101% | 95.7% | 89.8% | 93.7% | 93.1% | 78.7% | 75.7% | 72.4% | viability, T/C [16]: 74.5%; viability, T/C [17]: 78.3%; viability, T/C [18]: 79%; viability, T/C [19]: 54.6%; viability, T/C [20]: 56%; viability, T/C [21]: 55.6%; viability, T/C [22]: 52.6%; viability, T/C [23]: 50.7%; viability, T/C [24]: 49%; viability, T/C [25]: 13.8%; viability, T/C [26]: 13.9%; viability, T/C [27]: 11.5%; viability, T/C [28]: 9.66%; viability, T/C [29]: 12.9%; viability, T/C [30]: 8.88%
